Data: patent US9216964B2, “Hedgehog pathway modulators” (Novartis AG, priority 2008, dated 2015)
pIC50: −log10 of the molar value. Where two headings read alike, the source gives them in different places.

System: hedgehog signaling pathway
Test: Gli-Luc Reporter Assay for Hh Pathway Inhibition (TMHh-12 cells, pTA-8×Gli-Luc reporter)
Assay type: cell-based, Mouse
Details: Mus musculus; for pIC50: TMHh12, enzymatic and cellular assays for the inhibition of hedgehog signaling pathways, read-out: IC50 Ranges; for IC50: TMHh12, Ag1.5 1 nM, read-out: Hedgehog Inhibition IC50 (nM) (Ag1.5 1 nM)
Procedure, shortened: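 Mouse TM3 cells stably carrying an 8×Gli-firefly luciferase reporter, in 2% FBS medium; pathway activated with recombinant mouse Shh (8 μg/mL) or Smo agonist, compounds added at varying concentrations for 48 h. Luminescence read; IC50 at 50% signal reduction. Toxicity checked in TM3 cells (CellTiter-Glo) or constitutive-luciferase TM3-Luc cells.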

Row | Compound | pIC50 | IC50 [nM]
1 | Cc1ccc(NC(=O)c2cc(Nc3cccc4c3CCN(S(C)(=O)=O)C4)ccc2C)cc1 [Compound 186] | 9.00 to 12.00 | 
2 | Cc1ccc(Nc2cccc3c2CCN(C2CCS(=O)(=O)CC2)C3)cc1-c1ccc(F)cn1 [Compound 234] | 9.00 to 12.00 | 
3 | Cc1ccc(Nc2cccc3c2CCN(C2CS(=O)(=O)C2)C3)cc1-c1cc2ccccc2cn1 [Compound 316] | 9.00 to 12.00 | 
4 | COc1ccnc(-c2cc(Nc3cccc4c3CCN(S(C)(=O)=O)C4)ccc2C)n1 [Compound 239] | 7.00 to 8.00 | 
5 | CC(C)(C)OC(=O)N1CCc2c(cccc2Nc2ccc(Cl)c(-c3ncc(-c4ccccc4)[nH]3)c2)C1 [Compound 45] | 8.00 to 9.00 | 3
6 | COc1ccc(-c2cc(Nc3cccc4c3CCN([C@@H]3CCS(=O)(=O)C3)C4)ccc2C)nn1 [Compound 321] | 8.00 to 9.00 | 
7 | Cc1ccc(Nc2nccc3c2CCN(C2CCS(=O)(=O)CC2)C3)cc1-c1cc2ccccc2cn1 [Compound 344] | 9.00 to 12.00 | 
8 | CCOc1ccc(-c2cc(Nc3cccc4c3CCN(C3CS(=O)(=O)C3)C4)ccc2C)nn1 [Compound 295] | 8.00 to 9.00 | 
9 | O=C(CO)N1CCc2c(cccc2Nc2ccc(Cl)c(-c3ncc(-c4ccccc4)[nH]3)c2)C1 [Compound 72] | 9.00 to 12.00 | 
10 | Cc1ccc(Nc2cccc3c2CCN(S(C)(=O)=O)C3)cc1C(=O)N(C)c1ccccc1 [Compound 193] | 6.00 to 7.00 | 
11 | Cc1ncc(Nc2cccc3c2CCN(S(C)(=O)=O)C3)cc1-c1nc2ccccc2[nH]1 [Compound 111] | 8.00 to 9.00 | 
12 | CS(=O)(=O)N1CCc2c(cccc2Nc2ccc(Cl)c(-c3ncc(-c4ccccc4)[nH]3)c2)C1 [Compound 4] | 9.00 to 12.00 | 
13 | Cc1ccc(Nc2ncnc3c2CCN(C2CS(=O)(=O)C2)C3)cc1-c1cc2ccccc2cn1 [Compound 304] | 7.00 to 8.00 | 
14 | CS(=O)(=O)N1CCc2c(cccc2Nc2ccc(OC(F)(F)F)c(-c3ccc(C#N)cc3)c2)C1 [Compound 150] | 5.00 to 6.00 | 
15 | Cc1ccc(Nc2cccc3c2CCN(S(C)(=O)=O)C3)cc1-c1ccc(C(N)=O)cc1 [Compound 142] | 6.00 to 7.00 | 
16 | Cc1ccc(Nc2cccc3c2CCN(S(C)(=O)=O)C3)cc1-c1ccc(CO)cc1 [Compound 156] | 6.00 to 7.00 | 564
17 | C[C@@H](C(=O)O)N1CCc2c(cccc2Nc2ccc(Cl)c(-c3nc(-c4ccccc4)c[nH]3)c2)C1 [Compound 79] | 8.00 to 9.00 | 
18 | Cc1ccc(Nc2cccc3c2CCN(S(C)(=O)=O)C3)cc1-c1ccc(-c2nnn[nH]2)cc1 [Compound 143] | < 5.00 | > 10000
19 | Cc1ccc(Nc2cccc3c2CCN(S(C)(=O)=O)C3)cc1-c1ccc(C(C)(C)C)cc1 [Compound 113] | 5.00 to 6.00 | 1030
20 | COc1ccc(Nc2cccc3c2CCN(S(C)(=O)=O)C3)cc1-c1ccc(C#N)cc1 [Compound 149] | 6.00 to 7.00 | 
21 | Cc1ccc(Nc2cccc3c2CCN(S(C)(=O)=O)C3)cc1-c1ccc(CN(C)C)cc1 [Compound 108] | 6.00 to 7.00 | 
22 | Cc1ccnc(-c2cc(Nc3cccc4c3CCN(S(C)(=O)=O)C4)ccc2C)n1 [Compound 219] | 7.00 to 8.00 | 
23 | Cc1cccc(-c2cc(Nc3cccc4c3CCN(S(C)(=O)=O)C4)ccc2C)n1 [Compound 191] | 8.00 to 9.00 | 
24 | Cc1ccc(Nc2cccc3c2CCN(S(C)(=O)=O)C3)cc1-c1ccc2ccccc2n1 [Compound 231] | 9.00 to 12.00 | 
